This is an account of results in patent US9801376B2, “Synergistic pesticidal compositions and related methods” (Dow AgroSciences LLC, priority 2013, dated 2017).

What all share (format): in vivo
Experiment [1] relates to Western flower thrips, Frankliniella occidentalis (Pergande). As to the kind of experiment: Western flower thrips bioassay on treated first true cotton leaves (Example 5). The settings on record: alone. Here is the method: Ten second instar larvae of the Western flower thrips, Frankliniella occidentalis (Pergande), were infested onto each leaf disc. […] The “Colby's Expected Action” was calculated using Colby's equation as discussed previously.

The subject of experiment [2] is brown stink bug, Euschistus heros. As to the kind of experiment: Brown stink bug diet-treatment bioassay (Example 6). Conditions: alone.
Experiment [3] has as its system diamondback moth, Plutella xylostella. As to the kind of experiment: Diamondback moth bioassay on track-sprayed cabbage (Example 7). The settings on record: alone, dose rate 0.000078 weight %. From the text:
Three second-instar diamondback moth, Plutella xylostella, were infested onto each leaf disc.

For experiment [4], the system named is Western plant bug, Lygus hesperus. In words: Western plant bug bean-piece dip bioassay (Examples 10 and 11). Here is the method:
Bean pieces (about one inch-long) were used for the tests. Four bean pieces were placed in each tested active solution and left there for 10 minutes. Bean pieces were taken out of the active solution, and each piece was placed in a well in a 32-well tray and allowed to air dry. Three third-instar nymphs of Western plant bug, Lygus hesperus, were infested into each well.

The test system of experiment [5] is brown stink bug, Euschistus heros. In words: Brown stink bug bean-piece dip bioassay (Example 8). Conditions: alone. Here is the method:
The active compounds were formulated in a 10% acetone solution with 0.025% non-ionic surfactant, TWEEN® 20. Bean pieces (about one inch-long) were used for the tests. Four bean pieces were placed in each tested active solution and left there for 10 minutes. Bean pieces were taken out of the active solution, and each piece was placed in a well in a 32-well tray and allowed to air dry. Three third-instar nymphs of brown stink bug, Euschistus heros, were infested into each well.
The active compounds formulated in a 10% acetone solution with 0.025% non-ionic surfactant, TWEEN® 20 were tested against brown stink bugs, Euschistus heros, according to the procedure described in example 8A.

Experiment [6] concerns Western flower thrips, Frankliniella occidentalis. As to the kind of experiment: Western flower thrips cotton leaf punch dip bioassay (Example 9). Conditions: alone. Here is the method: The active compounds were formulated in a 10% acetone solution with 0.025% non-ionic surfactant, TWEEN® 20. Cotton leaf punches were used for bioassays. Two cotton leaf punches were placed in each solution and left there for 10 minutes. Leaves were taken out of the solution, placed on a piece of filter paper in separated Petri dishes, and air dried. Each leaf disc was considered a repetition. Five nymph of Western flower thrips, Frankliniella occidentalis, were infested per repetition.

On to `C/C(=N\C#N)N(C)Cc1ccc(Cl)nc1` [Acetamiprid, (1E)-N-[(6-chloro-3-pyridyl)methyl]-N′-cyano-N-methyl acetamidine], for which the “% Control Three Days After Treatment” value was 30% in experiment [1] (dose rate 0.002 weight %); 60% in experiment [1] (dose rate 0.02 weight %); 4.17% in experiment [3]; 0% in experiment [4] (acetamiprid alone, dose rate 0.005 weight %); 33% in experiment [4] (acetamiprid alone, dose rate 0.02 weight %). The “% Control Six Days After Treatment” value is 0% in experiment [2] (dose rate 0.000039 weight %), 0% in experiment [2] (dose rate 0.000078 weight %) and 9% in experiment [2] (dose rate 0.000156 weight %).
Regarding `CN=C(NCC1CCOC1)N[N+](=O)[O-]` (centres unmarked) [Dinotefuran, 2-methyl-1-nitro-3-[(tetrahydro-3-furanyl)methyl]guanidine], the “% Control Four Days After Treatment” value came out at 50% in experiment [5] (dose rate 0.0025 weight %) and 75% in experiment [5] (dose rate 0.01 weight %). The “% Control Three Days After Treatment” value in experiment [6] (dose rate 0.00002 weight %) turned out to be 0%; in experiment [6] (dose rate 0.000078 weight %) it was 0%; in experiment [6] (dose rate 0.0003125 weight %), 0%; in experiment [6] (dose rate 0.00125 weight %), 0%; in experiment [6] (dose rate 0.005 weight %), 10%; in experiment [6] (dose rate 0.02 weight %), 0%. Moreover, the “% Control Three Days After Treatment” value in experiment [4] (dinotefuran alone, dose rate 0.000078 weight %) stood at 0%; in experiment [4] (dinotefuran alone, dose rate 0.00125 weight %), 8%; in experiment [4] (dinotefuran alone, dose rate 0.005 weight %), 17%; in experiment [4] (dinotefuran alone, dose rate 0.02 weight %) it was 92%.
